US20250281499A1, “FUSED AMINO PYRIMIDINE COMPOUNDS FOR TREATMENT OF NEUROPATHIC AND NEURO-INFLAMMATORY PAIN” (Ovid Therapeutics Inc., priority 2024, published 2025)

What was measured:
[1] = biological target: T1, KCC3 (Homo sapiens, UniProt Q9UHW9); experiment: Tl+ flux assay, HEK-293 cells expressing KCC3; format: cell-based; conditions: read-out: concentration at which effects on KCC3 were seen (EC50, FIG. 1G)
T1 construct: expressed in transfected cells; host or cells: HEK-293
T1 sequence (Q9UHW9 1-1150): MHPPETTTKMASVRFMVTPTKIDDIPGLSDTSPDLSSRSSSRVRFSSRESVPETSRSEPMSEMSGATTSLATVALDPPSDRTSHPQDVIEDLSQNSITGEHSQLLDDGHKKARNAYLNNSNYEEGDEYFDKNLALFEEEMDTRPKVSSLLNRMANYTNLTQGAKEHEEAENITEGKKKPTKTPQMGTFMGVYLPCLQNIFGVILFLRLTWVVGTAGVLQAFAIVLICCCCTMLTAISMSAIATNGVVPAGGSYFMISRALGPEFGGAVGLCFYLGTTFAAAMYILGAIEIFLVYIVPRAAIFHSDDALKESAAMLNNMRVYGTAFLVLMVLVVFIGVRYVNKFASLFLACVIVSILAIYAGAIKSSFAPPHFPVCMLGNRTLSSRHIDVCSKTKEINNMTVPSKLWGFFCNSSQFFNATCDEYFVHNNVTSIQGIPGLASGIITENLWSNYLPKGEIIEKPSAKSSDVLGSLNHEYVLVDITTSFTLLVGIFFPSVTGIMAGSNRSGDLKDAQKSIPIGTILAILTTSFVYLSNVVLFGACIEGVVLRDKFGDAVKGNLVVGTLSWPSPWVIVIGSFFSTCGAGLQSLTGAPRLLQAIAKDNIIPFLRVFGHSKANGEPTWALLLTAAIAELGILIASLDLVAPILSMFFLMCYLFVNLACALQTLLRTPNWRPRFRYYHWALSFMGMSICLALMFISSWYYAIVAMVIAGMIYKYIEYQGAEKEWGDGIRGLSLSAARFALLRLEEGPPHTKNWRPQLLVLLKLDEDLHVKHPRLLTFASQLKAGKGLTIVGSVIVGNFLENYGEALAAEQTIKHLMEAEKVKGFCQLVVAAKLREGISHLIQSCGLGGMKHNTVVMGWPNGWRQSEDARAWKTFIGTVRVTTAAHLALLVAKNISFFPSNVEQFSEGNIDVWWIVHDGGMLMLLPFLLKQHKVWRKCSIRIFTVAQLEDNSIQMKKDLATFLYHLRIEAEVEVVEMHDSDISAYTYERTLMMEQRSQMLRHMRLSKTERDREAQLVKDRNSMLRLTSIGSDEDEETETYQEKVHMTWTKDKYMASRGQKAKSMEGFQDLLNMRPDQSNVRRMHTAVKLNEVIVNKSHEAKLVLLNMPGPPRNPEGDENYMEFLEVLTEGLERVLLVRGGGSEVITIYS
Description: (§1) FLIPR TI Flux assay. HEK-293 cells were washed with HBSS, and then incubated with loading buffer containing TI sensitive fluorescent dye (https://www.moleculardevices.com), 20 μM bumetanide 20 μM ouabain and 2.5 mM probenecid for 1 h at room temperature (RT) under control conditions or with drugs in the dark using a FlexStation 3 microplate reader (Molecular Devices) and imaged […] for 30 min. Stimulus buffer was added containing 5 mM K^+/0.5 mM Tl^+ and cells were imaged every 1.5 over a 190 second time course The initial rate Tl^+ uptake (Relative Fluorescence Units (RFU) per second) was determined following addition of the stimulus buffer as outlined previously (Conway et al., 2017, supra) (Lee et al., 2022, supra).
(§2) Several studies have shown that the activity and plasma membrane accumulation of KCC2 is potentiated via phosphorylation of S940, a process mediated by the activity of protein kinase C and protein phosphatase 1 (Lee et al, 2011, supra; Lee et al., J Biol Chem 282, 29777-29784 (2007); Moore et al., Proc. Natl. Acad. Sci. U.S.A 115, 10166-10171 (2018); Moore et al., Trends Neurosci. 40, 555-571 (2017); Silayeva et al., Proc. Natl. Acad. Sci. U.S.A. 112, 3523-3528 (2015)). […] Compared to KCC2, effects on KCC3, KCC4, and NKCC1 were only seen at concentrations more than 35-fold that of KCC2 (>100 μM) (FIG. 1G).

[2] = biological target: T2, KCC4 (Homo sapiens, UniProt Q9Y666); experiment: Tl+ flux assay, HEK-293 cells expressing KCC4; format: cell-based; conditions: read-out: concentration at which effects on KCC4 were seen (EC50, FIG. 1G)
T2 construct: expressed in transfected cells; host or cells: HEK-293
T2 sequence (Q9Y666 1-1083): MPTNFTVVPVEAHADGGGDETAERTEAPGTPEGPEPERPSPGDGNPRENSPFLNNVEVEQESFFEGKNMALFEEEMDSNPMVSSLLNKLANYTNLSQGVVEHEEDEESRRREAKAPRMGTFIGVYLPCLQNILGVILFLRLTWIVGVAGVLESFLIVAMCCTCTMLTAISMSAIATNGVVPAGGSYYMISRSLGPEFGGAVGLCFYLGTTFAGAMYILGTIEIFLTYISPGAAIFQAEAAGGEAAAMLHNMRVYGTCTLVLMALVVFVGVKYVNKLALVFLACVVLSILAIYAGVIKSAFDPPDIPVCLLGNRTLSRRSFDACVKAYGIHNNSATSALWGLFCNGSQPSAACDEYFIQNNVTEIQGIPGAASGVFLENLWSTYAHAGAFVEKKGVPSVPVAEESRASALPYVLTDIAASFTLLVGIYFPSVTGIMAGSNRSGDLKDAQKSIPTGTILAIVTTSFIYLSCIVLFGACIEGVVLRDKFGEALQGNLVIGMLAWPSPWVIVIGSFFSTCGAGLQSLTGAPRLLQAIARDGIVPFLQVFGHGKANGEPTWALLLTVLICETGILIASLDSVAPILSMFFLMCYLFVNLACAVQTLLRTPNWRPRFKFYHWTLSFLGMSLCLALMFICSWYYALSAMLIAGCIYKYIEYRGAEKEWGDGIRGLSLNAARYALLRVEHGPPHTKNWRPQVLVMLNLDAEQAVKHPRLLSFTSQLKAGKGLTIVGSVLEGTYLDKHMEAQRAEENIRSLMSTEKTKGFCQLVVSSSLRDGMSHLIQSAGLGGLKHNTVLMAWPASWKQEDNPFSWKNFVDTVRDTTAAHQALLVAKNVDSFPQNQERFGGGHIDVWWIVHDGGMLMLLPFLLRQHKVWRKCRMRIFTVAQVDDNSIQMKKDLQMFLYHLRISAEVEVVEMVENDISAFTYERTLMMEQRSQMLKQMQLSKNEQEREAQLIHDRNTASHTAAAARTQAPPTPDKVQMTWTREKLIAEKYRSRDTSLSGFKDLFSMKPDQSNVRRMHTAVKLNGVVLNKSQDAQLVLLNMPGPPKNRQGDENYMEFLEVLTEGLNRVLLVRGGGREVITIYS
Description: as §1, §2

C[C@@H]1CN(c2nc3c(c(Nc4ccc(C5CCCCC5)cc4)n2)COC3)CCO1 [Compound A, (R)—N-(4-cyclohexylphenyl)-2-(2-methylmorpholino)-5,7-dihydrofuro[3,4-d]pyrimidin-4-amine]
EC50 [1]: > 100 µM | EC50 [2]: > 100 µM
